Assay results reported in the supplement of paper PMC10627819.

How the values were obtained:
Assay in all cases: fitness (endpoint OD595 vs no drug) (fraction); higher = more growth
B. subtilis 168 = conditions: main component drawn
How it was run: (§1)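 Plates with 384 wells were inoculated at OD595 0.01 using 30 µl of TSB, LB Lennox or CY, or 55 µl for S. pneumoniae. Incubation was at 37 °C, with OD595 measured every 30 min for 14 h. Fitness is the stationary-phase transition optical density over the robust mean of no-drug control wells, after first-reading background subtraction; it is capped at 1.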

S. aureus Newman = system: S. aureus Newman
How it was run: as §1

S. pneumoniae D39V = system: S. pneumoniae D39V
How it was run: as §1

CC[C@H](C)[C@H](N)C1=N[C@H](C(=O)N[C@@H](CC(C)C)C(=O)N[C@H](CCC(=O)O)C(=O)N[C@H](C(=O)N[C@H]2CCCCNC(=O)[C@H](CC(N)=O)NC(=O)[C@@H](CC(=O)O)NC(=O)[C@H](Cc3cnc[nH]3)NC(=O)[C@@H](Cc3ccccc3)NC(=O)[C@H]([C@@H](C)CC)NC(=O)[C@@H](CCCN)NC2=O)[C@@H](C)CC)CS1 [Bacitracin] + O=C(O)[C@H]1/C(=C/CO)O[C@@H]2CC(=O)N21 [Clavulanic acid]
fitness, B. subtilis 168
Conditions	partner 1.5 µg/mL	partner 3 µg/mL	partner 6 µg/mL
first compound 37.5 µg/mL	0.906	0.86	0.795
first compound 75 µg/mL	0.915	0.838	0.734

fitness, S. aureus Newman, one replicate, main component drawn
Conditions	first compound 18.75 µg/mL	first compound 37.5 µg/mL	first compound 75 µg/mL
partner 0.03125 µg/mL	0.682	0.298	0.0064
partner 0.0625 µg/mL	0.673	0.251	0.0152
partner 0.125 µg/mL	0.686	0.219	0.0264

CO[C@@]12[C@H](COC(N)=O)C3=C(C(=O)C(C)=C(N)C3=O)N1C[C@@H]1N[C@@H]12 [Mitomycin C] + CC1(C)S[C@@H]2[C@H](NC(=O)Cc3ccccc3)C(=O)N2[C@H]1C(=O)O [Penicillin G]
fitness, S. aureus Newman
Conditions	first compound 0.0156 µg/mL	first compound 0.0312 µg/mL	first compound 0.0625 µg/mL
partner 0.0195 µg/mL	0.671	0.562	0.441
partner 0.039 µg/mL	0.646	0.556	0.389
partner 0.078 µg/mL	0.636	0.564	0.412

CO[C@@]12[C@H](COC(N)=O)C3=C(C(=O)C(C)=C(N)C3=O)N1C[C@@H]1N[C@@H]12 [Mitomycin C] + CO[C@H]1/C=C/O[C@@]2(C)Oc3c(C)c(O)c4c(O)c(c(/C=N/N5CCN(C)CC5)c(O)c4c3C2=O)NC(=O)/C(C)=C\C=C\[C@H](C)[C@H](O)[C@@H](C)[C@@H](O)[C@@H](C)[C@H](OC(C)=O)[C@@H]1C [Rifampicin]
fitness, S. pneumoniae D39V
Conditions	first compound 0.001075 µg/mL	first compound 0.002 µg/mL	first compound 0.00215 µg/mL	first compound 0.004 µg/mL	first compound 0.0043 µg/mL	first compound 0.008 µg/mL
partner 0.05 µg/mL	0.779	0.647	0.664	0.558	0.517	–
partner 0.1 µg/mL	0.458	0.289	0.307	0.308	0.288	0.288
partner 0.2 µg/mL	0.18	–	0.169	–	0.129	–

fitness, S. pneumoniae D39V, one replicate
Conditions	first compound 0.002 µg/mL	first compound 0.004 µg/mL	first compound 0.008 µg/mL
partner 0.025 µg/mL	0.804	0.698	0.492
partner 0.2 µg/mL	0	0	0

CC[C@H](C)[C@H](N)C1=N[C@H](C(=O)N[C@@H](CC(C)C)C(=O)N[C@H](CCC(=O)O)C(=O)N[C@H](C(=O)N[C@H]2CCCCNC(=O)[C@H](CC(N)=O)NC(=O)[C@@H](CC(=O)O)NC(=O)[C@H](Cc3cnc[nH]3)NC(=O)[C@@H](Cc3ccccc3)NC(=O)[C@H]([C@@H](C)CC)NC(=O)[C@@H](CCCN)NC2=O)[C@@H](C)CC)CS1 [Bacitracin] + N[C@@H]1CONC1=O [Cycloserine D]
fitness, B. subtilis 168
Conditions	first compound 37.5 µg/mL	first compound 75 µg/mL	first compound 150 µg/mL
partner 0.125 µg/mL	0.893	0.89	0.737
partner 0.25 µg/mL	0.894	0.898	–
partner 0.5 µg/mL	0.858	0.858	–

fitness, S. aureus Newman, main component drawn
Conditions	first compound 18.75 µg/mL	first compound 37.5 µg/mL	first compound 75 µg/mL
partner 0.375 µg/mL	0.761	0.282	0.0299
partner 0.75 µg/mL	0.761	0.28	0.0202
partner 1.5 µg/mL	0.74	0.202	0.0116

CC[C@H](C)[C@H](N)C1=N[C@H](C(=O)N[C@@H](CC(C)C)C(=O)N[C@H](CCC(=O)O)C(=O)N[C@H](C(=O)N[C@H]2CCCCNC(=O)[C@H](CC(N)=O)NC(=O)[C@@H](CC(=O)O)NC(=O)[C@H](Cc3cnc[nH]3)NC(=O)[C@@H](Cc3ccccc3)NC(=O)[C@H]([C@@H](C)CC)NC(=O)[C@@H](CCCN)NC2=O)[C@@H](C)CC)CS1 [Bacitracin] + CN(C)[C@@H]1C(O)=C(C(N)=O)C(=O)[C@@]2(O)C(O)=C3C(=O)c4c(O)ccc(Cl)c4[C@@](C)(O)[C@H]3C[C@@H]12 [Chlortetracycline]
fitness, B. subtilis 168
Conditions	first compound 37.5 µg/mL	first compound 75 µg/mL	first compound 150 µg/mL
partner 0.0475 µg/mL	0.865	0.856	0.723
partner 0.095 µg/mL	0.753	0.68	0.497
partner 0.19 µg/mL	–	–	0.0687

CO[C@@]12[C@H](COC(N)=O)C3=C(C(=O)C(C)=C(N)C3=O)N1C[C@@H]1N[C@@H]12 [Mitomycin C] + C/C(=C\C(=O)OCCCCCCCCC(=O)O)C[C@@H]1OC[C@H](C[C@@H]2O[C@H]2[C@@H](C)[C@H](C)O)[C@@H](O)[C@H]1O [Pseudomonic acid]
fitness, S. aureus Newman, one replicate
Conditions	first compound 0.0156 µg/mL	first compound 0.0312 µg/mL	first compound 0.0625 µg/mL
partner 0.0313 µg/mL	0.0474	0.0196	0.0148
partner 0.0625 µg/mL	0.0185	0.0244	0.0093
partner 0.125 µg/mL	0.0351	0.0217	0.029

fitness, S. pneumoniae D39V
Conditions	first compound 0.001075 µg/mL	first compound 0.002 µg/mL	first compound 0.00215 µg/mL	first compound 0.004 µg/mL	first compound 0.0043 µg/mL	first compound 0.008 µg/mL
partner 0.03 µg/mL	0.914	0.855	0.919	0.741	0.818	0.612
partner 0.06 µg/mL	0.806	0.725	0.795	0.64	0.731	0.523
partner 0.12 µg/mL	0.587	0.549	0.584	0.498	0.51	0.322
